Experimental data taken from a melting point compilation (Tetko et al.; mined from patent text by program, amines drawn as free bases though some values may be those of a salt).

Structure (SMILES) | melting point
CN(C(=O)c1cc(-c2ccccc2)c2sccc2c1)c1ccccc1 | 127 °C
N#CN1CCN(c2nn(-c3ccccc3)c3ccccc23)CC1 | 118 to 120 °C
N#Cc1c(N)oc2c(-c3ccccc3)cccc2c1=O | 217 to 219 °C
C#Cc1ccc(Cn2cc(-c3ccc(OC)cc3)ccc2=O)cn1 | 273 °C
COc1ccc(-c2cc3ccc(C(=O)O)cc3s2)cc1C12CC3CC(CC(C3)C1)C2 | 305 °C
Cc1onc(OCC(=O)NCCO[N+](=O)[O-])c1Br | 87 to 88 °C
O=C(Nc1ccc(OCCN2CCOCC2)c2ccccc12)c1ccc2snnc2c1 | 188 to 190 °C
COc1cc(OC(C)(C)C(=O)O)c(-c2cccs2)cc1/C=C/C(=O)c1ccc(NS(C)(=O)=O)cc1 | 181 to 183 °C
CSc1nc(Cl)cc2cnc(C)n12 | 153 to 155 °C
COCCNc1nc2ccccc2n(-c2ccc(Cl)cc2)c1=O | 151 to 152 °C
COc1cc(C(C)=O)ccc1SCCCN1CCC(c2noc3cc(F)ccc23)CC1 | 93 to 95 °C
CC(=O)OC[C@H]1[C@H](O)[C@@H](O)[C@@H](O)[C@@H]2NC(=O)c3cc4c(cc3[C@@H]12)OCO4 | > 200 °C
CCN(CC)Cn1cnc2c1c(=O)n(C)c(=O)n2C | 114 to 115 °C
CC(C)(C)c1ccc(-c2cc(Nc3ccc4[nH]ccc4c3)nnc2-c2ccccc2)cc1 | 138 to 140 °C
COC(=O)c1sc2ccccc2c1O | 109 to 110 °C
O=S(=O)(Nc1ccc2c(OCc3ccc(-c4ccc(Cl)cc4)cc3F)cccc2c1)C(F)(F)F | 151 to 153 °C
O=C(c1ccc(F)cc1)N1CCC[C@H](c2noc(-c3ccc(F)cn3)n2)C1 | 108 to 110 °C
COCCOCCOC(=O)/C=C/C(=O)/C=C/c1cccc(OC)c1 | 59 to 60 °C
CN(Sc1nc2ccccc2s1)C(=O)Oc1cccc2c1OC(C)(C)C2 | 92 to 93 °C
CC(C)(C)c1ccc(C(=O)Nc2cn3cc(-c4cn[nH]c4)ccc3n2)cn1 | 238 to 240 °C
Nc1nnc(-c2ccc3occ(-c4cc(F)ccc4F)c3c2)o1 | 245 to 246 °C
CCOC(=O)C(O)C(Oc1ccccc1[N+](=O)[O-])c1ccccc1 (stereo not given) | 129 to 131 °C
CCOc1c(N2CCNCC2)c(F)cc2c(=O)c(C(=O)O)cn(C3CC3)c12 | 119 to 122 °C
COc1ccc(C(=O)Nc2ccc(C3(CNC(C)=O)CC3)cc2)cc1OC | 204 to 206 °C
COc1nn(Cc2ccc(OCc3nc(-c4ccccc4)oc3C)cc2)cc1CCC(=O)O | 127 to 128 °C

Structure (SMILES) | melting point
O=C(NCCCCCCCCCCCC(=O)OCC12CC3CC(CC(C3)C1)C2)NC12CC3CC(CC(C3)C1)C2 | 68 °C
CCN1CCN(C2=Nc3cc(Cl)ccc3Oc3ccccc32)CC1 | 100 to 101 °C
FC(F)c1nc2ccccc2n1-c1nc(NCc2ccccc2)nc(N2CCOCC2)n1 | 185 to 188 °C
CC(=O)c1ccc(S(=O)(=O)NCCN2CCOCC2)cc1 | 128 to 129 °C
Cc1ncc(CS)c(COC(=O)c2ccccc2)c1OC(=O)c1ccccc1 | 185 to 189 °C
N#CC(Sc1ccccc1)=C1SCCN1c1ccccc1 | 143 to 145 °C
O=C(NCc1ccc(Cl)cc1)c1cn(CCCN2CCCCC2)c2ccc(C#CCO)cc2c1=O | 160 to 163 °C
CC#CCOc1cc(Oc2c(F)cc(F)cc2F)ncn1 | 60.3 °C
CC1(C)C(CC(Cl)(Cl)Cl)C1C(=O)O (stereo not given) | 85 to 89 °C
CCOC(=O)c1cc(-n2c(=O)[nH]c3c(c2=O)CCCC3)ccc1Cl | 196 to 198 °C
COc1cc(CN2C(=O)c3ccsc3CC2C(=O)O)cc(OC)c1OC (stereo not given) | 208 °C
Cc1cn(-c2ccc3c(c2)c2ccccc2n3-c2ccccc2)c(-c2nc(C)cn2-c2ccc3c(c2)c2ccccc2n3-c2ccccc2)n1 | 245 to 253 °C
COc1ccc2c(c1)NC(=O)C2=Cc1[nH]c2c(c1CCC(=O)O)CCCC2 | 263 to 266 °C
CN(C)CCN1C(=O)c2cscc2N(C)c2ccccc21 | 147 to 149 °C
CC(C)(C)C(Br)(Br)C(=O)O | 241 to 243 °C
CS(=O)(=O)c1ccc(-c2cc(=O)n(CC3CCC3)nc2-c2ccc(F)cc2)cc1 | 74 to 76 °C
NC1=NN(c2ccc(Cl)cn2)C(c2ccccc2)C1 (stereo not given) | 142 to 147 °C
CCCCc1ncc(C=O)n1Cc1ccc(C(=O)OC)cc1 | 62 to 64 °C
CN(C(=S)Nc1nc(OCC(F)(F)F)cc(OCC(F)(F)F)n1)c1ccc(C(F)(F)F)cc1 | 109 to 111 °C
CNc1ccc(C2=NCCO2)cc1 | 102 to 105 °C
S=C(NCCc1cccc(Cl)c1)Nc1nc2ccccc2[nH]1 | 171 to 177 °C
CNc1c(NCCSCc2ccc(CN(C)C)s2)c(=O)c1=O | 185 to 187 °C
COC(=O)C(=NOCF)c1ccccc1COc1ccccc1C | 101 to 102 °C
COc1ccc(Cl)cc1C(=O)NCc1ccc(-c2ccc(OC(C)(C)C(=O)O)cc2)cc1 | 104 °C
O=C(NO)c1ccc(N2CCCC2)cn1 | 220 to 225 °C

Structure (SMILES) | melting point
Cc1ccc(NC(=N)Nc2ncccc2OCc2c(F)cccc2Cl)cc1 | 136 to 138 °C
COCCNC(=O)c1n[nH]c2c(=O)[nH]c3cc(Cl)ccc3c(=O)c12 | 287 to 291 °C
CCCCCCCCCCCC=CC(O)C(COC1OC(CO)C(O)C(O)C1O)NC(=O)CCCCCCCCCCCCCCCCC (stereo not given) | 209 to 210 °C
CN(C)Cc1ccc([C@H]2CC[C@H](OC(=O)c3ccc(Cl)cc3)CC2)cc1 | 94 to 95 °C
CCOC(=O)CCC1(NC(=O)c2ccc(Cl)c(Cl)c2)C(=O)N(CC(=O)O)c2ccccc21 (stereo not given) | 219 to 220 °C
COc1cccc2cc(C)c(C)nc12 | 138 to 139 °C
CCOC(=O)CCc1cc(-c2ccc(Cl)cc2)n(-c2ccc(OC)cc2)n1 | 80 to 81 °C
Cc1noc(NC(=O)C(c2ccccc2)c2ccccc2)n1 | 215 °C
COc1ccc2c(c1)c1c(n2Cc2ccc(Cl)cc2)CCCC1C(=O)O (stereo not given) | 218 to 220 °C
O=[N+]([O-])c1ccc(C(=NO)c2ccc([N+](=O)[O-])cc2)cc1 | 194 °C
CCC(=O)NC1=NN(c2ccccc2)C(c2ccccc2)C1 (stereo not given) | 148 °C
CCOC(CC)=NS(=O)(=O)c1nc(-c2ccccc2)ns1 | 98 to 100 °C
COC(=O)c1cc(C)c(-c2cccc(O)c2C)c(C)c1 | 149 °C
Cc1cnc2c(c1)n(C(C)C)c(=O)n2-c1ccc(Oc2nc3cccnc3n2C)cc1 | 252 °C
CC(=NNC(=O)C1CC1)c1ccc(Cl)nc1 | 218 °C
Cc1cc(=O)[nH]c2nc(OCCCCN3CCN(c4cccc(Cl)c4Cl)CC3)ccc12 | 181 to 182 °C
COC(/C=C/c1cccc(Cl)c1)=N/c1ccc(C(O)c2cncn2Cc2ccc(C#N)cc2)cc1 (stereo not given) | 192 °C
CN(C)C1(c2ccccc2)CCC(CNC(=O)NCCCc2ccccc2)CC1 (stereo not given) | 100 to 110 °C
CCc1cc(C)c2c(-c3cccc(Br)c3)cc(=O)n(CC)c2n1 | 107 to 108 °C
COc1ccc2c(C(=O)O)cc3cc4c(cc3c2c1)OCO4 | 293 to 295 °C
CNS(=O)(=O)c1ccccc1Nc1nc(Nc2ccc3c(c2)CCN(S(C)(=O)=O)CC3)ncc1Cl | 199 to 201 °C
Cc1cccc(-c2n[nH]cc2-c2ccc(F)c(-c3ccc(S(C)(=O)=O)cc3)c2)n1 | 100 to 102 °C
CC1=C(O)CCC(C)(C)C1=O | 112 to 114 °C
O=C(O)c1ccc2c(c1)CCN2Cc1cccc([N+](=O)[O-])c1 | 259 to 262 °C
CCc1c2nc(-c3cc(S(C)(=O)=O)ccc3OCC(C)C)[nH]c(=O)c2nn1CCN1CCOCC1 | 268 to 273 °C

Structure (SMILES) | melting point
COc1cc(/C=C/C=O)c([N+](=O)[O-])cc1OC | 103 to 105 °C
CCOC(=O)CCc1cn(Cc2cccnc2OCc2csc(-c3ccccc3)n2)nc1-c1ccccc1 | 88 to 89 °C
COC(=O)C1(C)CC(C(=O)Nc2ccc(I)cc2)=NN1c1ccc(F)cc1 (stereo not given) | 84 to 85 °C
CN1C(=O)N(C)C(c2c(C(C)(C)C)cc(O)cc2C(C)(C)C)N(C)C1=O | 194 to 196 °C
C=CCOc1ccc(OC(C(=O)C(C)(C)C)n2cncn2)cc1 (stereo not given) | 66 °C
COc1cc(N=C(NC#N)Oc2ccccc2)cc(C(F)(F)F)c1 | 168 to 170 °C
COc1ccc(OCc2ccccc2)c(C(=O)C=Cc2cccc([N+](=O)[O-])c2)c1 | 108 to 110 °C
CCCN1CCC23c4cccc(OC)c4OC2C2CCC3(C1=O)C(C(=O)OC)C2 (stereo not given) | 126 to 128 °C
O=CNCCCCCCO | 43.5 to 45 °C
CNc1nc(OC)c(C(=O)OC)cc1Br | 136 to 138 °C
CCCCCCCCc1ccc(S(=O)(=O)Nc2nncs2)cc1 | 123 to 124 °C
COC(=O)c1ccc(Cc2c(Cl)n(C)c3cc(Cl)c(CC(C)NC(=O)N(C)C)cc23)c(OC)c1 (stereo not given) | 175 to 176 °C
COc1ccccc1[C@H](C)C(=O)N1C[C@@H]2[C@H](F)CCC(c3ccccc3)(c3ccccc3)[C@@H]2C1 | 195 °C
COc1ccc(C(=O)c2ccc(OCc3nc(-c4ccccc4)oc3C)cc2)c(OC(C(=O)O)C(C)C)c1 (stereo not given) | 87 to 88 °C
Nc1nc(Cl)c(N)c(NCCCCO)n1 | 110 to 111 °C
CCCCCCCCCCCCCCOc1ccc(C(=O)OC)cc1 | 56 to 58 °C
Cn1cc(C2=C(c3cn(CCCBr)c4ccccc34)C(=O)OC2=O)c2ccccc21 | 168 to 170 °C
c1ccc(CC2CCN2C(c2ccccc2)c2ccccc2)cc1 (stereo not given) | 87.5 °C
Cc1[nH]c(=O)c(C#N)cc1-c1ccc(OCCCC(=O)O)cc1 | 247 to 249 °C
[N-]=[N+]=NCc1n[nH]nc1-c1ccc(Cl)cc1C(=O)c1ccccc1 | 128 to 131 °C
CCCCC(=CC(N)C(=O)O)CP(=O)(O)O (stereo not given) | 186 to 187 °C
CC1COP(=O)(Cc2ccc([N+](=O)[O-])cc2)OC1 (stereo not given) | 170 to 171 °C
O=C(O)c1ccc(C=CC(=O)N2CCCCC2)cc1 | 257 °C
CCCN(CCC)C1CCc2ccc(NC(=O)C=NO)cc2C1 (stereo not given) | 82 to 85 °C
COc1ccc2[nH]c3c(c2c1)C(=O)/C(=C/c1nc[nH]c1C)CC3 | 133 to 135 °C
